Data: patent US5795892A, “4-aminopyridazines, method of preparing them and drugs containing these compounds” (Boehringer Manneim GmbH, priority 1994, dated 1998)

Assays:
thrombin = biological target: T1, thrombin (Equus caballus, UniProt F7BFJ1); assay: Thrombin time; assay type: biochemical, horse thrombin, human plasma; conditions: 37° C.; for TT5 (thrombin time as a difference to the control): 5 μM active substance in human plasma; for TT50 (thrombin time as a difference to the control): 50 μM active substance in human plasma
T1 construct: mature thrombin (light and heavy chain) cut from prothrombin; clotting of human fibrinogen
Protocol: A conventional test in clinical coagulation diagnostics is the thrombin time. This parameter measures the action of thrombin on fibrinogen and the formation of clots. Inhibitors of thrombin result in an extended thrombin time.
In order to obtain plasma 9 parts of fresh blood from healthy donors was mixed with one part of sodium citrate solution (0.11 mol/l) and it was centrifuged for 10 minutes at room temperature at ca. 3000 r.p.m. The plasma was removed by pipette and can be stored at room temperature for ca. 8 hours.
200 μl citrate plasma was incubated for 2 minutes at 37° C. in a ball coagulometer (KC10 from the Amelung Company). 10 μl dimethylsulfoxide (DMSO) or a solution of the active substance in DMSO was added to 190 μl pre-heated thrombin reagent (Boehringer Mannheim GmbH; contains ca. 3 U/ml horse thrombin and 0.0125M Ca^++). On addition of this 200 μl solution to the plasma a stopwatch was started and the time at which coagulation starts was determined.
The measured thrombin times in seconds are given in the following table as a difference to the control. The concentrations of the active substances in human plasma were 50 μM (TT50) and 5 μM (TT5).

human α thrombin = biological target: T2, human α thrombin (Homo sapiens, UniProt P00734); assay: Thrombin inhibition; assay type: biochemical; conditions: pH=7.5, 25° C., substrate H-(D)-Phe-Pro-Arg-pNA
T2 construct: human α thrombin; purchased Sigma
Protocol: The kinetic measurements were carried out in 0.1M phosphate buffer that contained 0.2M sodium chloride and 0.5% polyethylene glycol 6000 at a pH=7.5 and 25° C. with the substrate H-(D)-Phe-Pro-Arg-pNA (Kabi) and human α thrombin (Sigma, specific activity=2150 NIH-units/mg) in polystyrene semi-microcuvettes in a total volume of 1 ml.
In a preliminary test each active substance was determined as to whether it inhibits thrombin rapidly or slowly. For this the reaction was firstly started by adding 0.03 NIH units thrombin to a 100 μM solution of the substrate and the active substance. In a second experiment, substrate was added to a solution of thrombin and the active substance which had been incubated for 5 minutes. The increase in the concentration of p-nitroaniline with time was monitored spectroscopically (UV-VIS spectrophotometer Lambda-2 from the Perkin-Elmer Company) at 405 nm for 12 min.
Since the measured curves obtained in both experiments were linear and parallel, the active substances of the following table are rapid thrombin inhibitors.
The inhibition constants Ki were then determined as follows. The substrate was used at concentrations of 100 μM, 50 μM, 30 μM, 20 μM and at each substrate concentration one measurement was carried out without inhibitor and three measurements were carried out in the presence of various concentrations of the inhibitors listed in the following table. The reactions were started by the addition of thrombin. The increase in absorbance at 405 nm due to the formation of p-nitroaniline was monitored over a time period of 12 minutes. Measurement points (time versus absorbance) were transferred to a PC at intervals of 20 seconds. The rates Vo (change in absorbance per second; measurements without inhibitor) and Vi (measurements with inhibitor) are determined by linear regression. Only that part of each measurement was used in which the substrate concentration had decreased by less than 15%. Km ' and Vmax were determined from a measurement series (constant inhibitor concentration, variable substrate concentrations) by a non-linear fit to the equation [formula] Finally Ki was calculated from the entire series of measurements by non-linear fitting to the equation [formula]
The inhibition constants Ki of the active substances are stated in the following table in units of μM.

SMILES: Cc1cc(OCCNc2ccnnc2)cc(OS(=O)(=O)c2ccc(C#N)cc2)c1 [Example 11, 4-Cyanobenzenesulfonic acid-3-methyl-5-[2-(pyridazin-4-ylamino)-ethoxy]-phenyl ester]
- TT5 (thrombin time as a difference to the control) (thrombin): 18 s
- TT50 (thrombin time as a difference to the control) (thrombin): 81 s
- Ki (human α thrombin): 200 nM

SMILES: Cc1cc(NS(=O)(=O)c2ccccc2)cc(OCCNc2ccnnc2)c1 [Example 1, N-{3-methyl-5-[2-(pyridazin-4-ylamino)-ethoxy]-phenyl}-benzenesulfonamide]
- TT5 (thrombin time as a difference to the control) (thrombin): 23 s
- TT50 (thrombin time as a difference to the control) (thrombin): 126 s
- Ki (human α thrombin): 70 nM

SMILES: Cc1cc(NS(=O)(=O)C2CCCCC2)cc(OCCNc2ccnnc2)c1 [Example 22, N-{3-Methyl-5-[2-(pyridazin-4-ylamino)-ethoxy]-phenyl}-cyclohexanesulfonamide]
- TT5 (thrombin time as a difference to the control) (thrombin): 11 s
- TT50 (thrombin time as a difference to the control) (thrombin): 90 s
- Ki (human α thrombin): 350 nM

SMILES: Cc1cc(OCCNc2ccnnc2)cc(OS(=O)(=O)c2cccc(C(N)=S)c2)c1 [Example 10, 3-Thiocarbamoyl-benzenesulfonic acid-3-methyl-5-[2-(pyridazin-4-ylamino)-ethoxy]-phenyl ester]
- TT5 (thrombin time as a difference to the control) (thrombin): 13 s
- TT50 (thrombin time as a difference to the control) (thrombin): 71 s
- Ki (human α thrombin): 170 nM

SMILES: Cc1cc(OCCNc2ccnnc2)cc(OS(=O)(=O)c2cccnc2)c1 [Example 4]
- TT5 (thrombin time as a difference to the control) (thrombin): 38 s
- TT50 (thrombin time as a difference to the control) (thrombin): 194 s
- Ki (human α thrombin): 60 nM

SMILES: Cc1cc(OCCNc2ccnnc2)cc(OS(=O)(=O)c2cccc(C#N)c2)c1 [Example 9, 3-Cyanobenzenesulfonic acid-3-methyl-5-[2-(pyridazin-4-ylamino)-ethoxy]-phenyl ester]
- TT5 (thrombin time as a difference to the control) (thrombin): 31 s
- TT50 (thrombin time as a difference to the control) (thrombin): 128 s
- Ki (human α thrombin): 140 nM

SMILES: CCOC(=O)COc1cccc(S(=O)(=O)Oc2cc(C)cc(OCCNc3ccnnc3)c2)c1 [Example 13, (3-{3-Methyl-5-[2-(pyridazin-4-ylamino)-ethoxy]-phenoxy-sulfonyl}-phenoxy)-acetic acid ethyl ester]
- TT5 (thrombin time as a difference to the control) (thrombin): 0 s
- TT50 (thrombin time as a difference to the control) (thrombin): 49 s
- Ki (human α thrombin): 90 nM
